Earlier results as cited in patent US11389412B2, “Curcuminoid chlorophyllin (CHL) compositions and methods of preparation and use” (InovoBiologic Inc., priority 2017, dated 2022).

Conditions: composition of curcuminoid mixture and essential oil arturmerone, U.S. Pat. No. 7,883,728

bioavailability of curcumin in human, maximum: about 93 ng/g
SMILES: COc1cc(C=CC(=O)CC(=O)C=Cc2ccc(O)c(OC)c2)ccc1O [curcumin, 1,7bis (4-hydroxy-3-methoxy phenyl)-1,6 heptadiene-3,5-dione]
